Literature values in patent US7649096B2, “Process for the preparation of a crystalline form of (S)-N [[3-(3-fluoro-4(4-morpholinyl) phenyl]-2-oxo-5-oxazolidinyl] methyl] acetamide” (Glenmark Pharmaceuticals Limited, priority 2005, dated 2010).

Legend:
enterococci = conditions: against enterococci
staphylococci = conditions: against staphylococci
streptococci = conditions: majority of strains

CC(=O)NC[C@H]1CN(c2ccc(N3CCOCC3)c(F)c2)C(=O)O1 [linezolid, (S)-N-[[3-[3-fluoro-4-(4-morpholinyl)phenyl]-2-oxo-5-oxazolidinyl]methyl]acetamide]
results of time-kill studies (bacteriostatic or bactericidal) (enterococci): bacteriostatic
results of time-kill studies (bacteriostatic or bactericidal) (staphylococci): bacteriostatic
results of time-kill studies (bacteriostatic or bactericidal) (streptococci): bactericidal for the majority of strains
